Earlier results in patent publication US10828414B2, “Magnetic filtration devices and methods related thereto” (The Regents of the University of California, priority 2015, dated 2020).

Conditions: IAC, regardless of infused dose

first pass hepatic clearance: 50-70%
Structure (SMILES): COc1cccc2c1C(=O)c1c(O)c3c(c(O)c1C2=O)C[C@@](O)(C(=O)CO)C[C@@H]3O[C@H]1C[C@H](N)[C@H](O)[C@H](C)O1 [Dox, doxorubicin]
